From patent US20120022054A1, “NOVEL SUBSTITUTED ARYL DERIVATIVES, THEIR PROCESS OF PREPARATION AND THEIR THERAPEUTICAL USES AS ANTI-HIV AGENTS” (priority 2008, published 2012)
Like-named read-outs stand apart in the source and are kept apart here.

What was measured:
[1] = system: Env-deleted NL4-3 vector virus pseudotyped with the VSV g envelope; assay: microbe, parasite or virus in culture; assay type: cell-based, HIV-1; details: Vesicular stomatitis virus, NL43, SUP-T1, 48 h, read-out: EC50 for antiviral activity (50% inhibition of luciferase activity)
[2] = system: NL4-3 strain of HIV-1; assay: Multiple cycle infection assay of CAp24 antigen production; assay type: cell-based; details: Human immunodeficiency virus 1, NL43, SUP-T1, 96 h, read-out: EC50 for antiviral activity (50% inhibition of CA p24 production)
[3] = multiple cycle infection with NL4-3 virus, SupT1, MT4 or PBMC, MOI 0.01, day 4 and day −6 post-infection, threshold below 5 μM

Compound	EC50 [1] [µM]	EC50 [2, 3] [µM]	EC50 [2] [µM]
COc1ccc(SCCCC(=O)N(C)Cc2cc(F)ccc2OC(C)C)cc1 [Example 117, N-(5-fluoro-2-isopropoxybenzyl)-4-[(4-methoxyphenyl)thio]-N-methylbutanamide]	< 5	< 5	–
COc1ccc(SCCCC(=O)N(C)Cc2cc(C)ccc2OC)cc1 [Example 119, 4-[(4-methoxyphenyl)thio]-N-[2-methoxy-5-methylbenzyl]-N-methylbutanamide]	< 5	< 5	–
COc1ccc(C)cc1CN(C)C(=O)CCCn1ccc2ccc(F)cc21 [Example 121, 4-(6-fluoro-1H-indol-1-yl)-N-(2-methoxy-5-methylbenzyl)-N-methylbutanamide]	< 5	< 5	–
CN(Cc1ccccc1-c1ccco1)C(=O)CCCn1ccc2cc(F)ccc21 [Example 122, 4-(5-fluoro-1H-indol-1-yl)-N-(2-(furan-2-yl)benzyl)-N-methylbutanamide]	< 5	< 5	–
COc1ccc(SCCCC(=O)N(C)Cc2cc(C)ccc2N2CCOCC2)cc1 [Example 124, 4-[(4-methoxyphenyl)thio]-N-[5-methyl-2-(morpholin-4-yl)benzyl]-N-methylbutanamide]	< 5	< 5	–
COc1ccccc1N(C)C(=O)CCCSc1ccc(F)cc1 [Example 126, 4-[(4-Fluorophenyl)thio]-N-(2-methoxyphenyl)-N-methylbutanamide]	< 5	< 5	–
CN(C(=O)CCCSc1ccc(F)cc1)c1cccc2cnccc12 [Example 131, 4-[(4-fluorophenyl)thio]-N-isoquinolin-5-yl-N-methylbutanamide]	< 5	< 5	–
COc1ccc([S+]([O-])CCCC(=O)N(C)c2nccc3ccccc23)cc1 (stereo not shown) [Example 133, N-isoquinolin-1-yl-4-[(4-methoxyphenyl)sulfinyl]-N-methylbutanamide]	< 5	< 5	–
COc1ccccc1CN(C)C(=O)CCCSc1ccc(F)c(Cl)c1 [Example 141, 4-[(3-Chloro-4-fluorophenyl)thio]-N-(2-methoxybenzyl)-N-methylbutanamide]	< 5	< 5	–
COC(=O)c1ccc(SCCCC(=O)N(C)Cc2cc(F)ccc2OC)cc1 [Example 147, Methyl 4-({4-[(5-fluoro-2-methoxybenzyl)methylamino]-4-oxobutyl}thio)benzoate]	< 5	< 5	–
COc1ccc(F)cc1CN(C)C(=O)CCCSc1ccc(CO)cc1 [Example 148, N-(5-fluoro-2-methoxybenzyl)-4-{[4-(hydroxymethyl)phenyl]thio}-N-methylbutanamide]	< 5	< 5	–
COc1ccccc1CN(C)C(=S)CCCSc1ccc(O)cc1 [Example 164, 4-[(4-Hydroxyphenyl)thio]-N-(2-methoxybenzyl)-N-methylbutanethioamide]	< 5	< 5	–
CN(Cc1ccccc1C1=CCNCC1)C(=O)CCCSc1ccc(O)cc1 [Example 168, 4-[(4-Hydroxyphenyl)thio]-N-methyl-N-[2-(1,2,3,6-tetrahydropyridin-4-yl)benzyl]butanamide]	< 5	–	< 5
CCOC(=O)c1cc(F)ccc1SCCCC(=O)N(C)c1cccc(F)c1 [Example 193, Ethyl 5-fluoro-2-({4-[(3-fluorophenyl)(methyl)amino]-4-oxobutyl}thio)benzoate]	< 5	< 5	–
